# Assay results from patent publication US5503843A, “Transdermal delivery of alpha adrenoceptor blocking agents” (priority 1994, dated 1996).
# Read-outs that look alike come from different tables or passages of the source.
# Key:
# [1] = test system: rabbit urethral ring tissues; conditions: in vitro; cited from earlier work
# [2] = test system: rabbit trigone; conditions: in vitro; cited from earlier work
# [3] = test system: alpha1 A and alpha1 B adrenoceptors; conditions: Michel et al.; cited from earlier work
# [4] = test system: smooth muscle originating from the trigone muscle at the base of the bladder; conditions: trigone smooth muscle preparations; cited from earlier work
# [5] = cited from earlier work
# [6] = pKa of alpha blockers (Table 1); type: physicochemical
# Source text: However, the solubility improvement largely depends on the choice of solvent, any specific common ion interaction and the size and polarity of the counterion. Often, salts prepared from strong acids are freely soluble in water. […] Suitable alkane- or arenesulfonic acid anions include […], tosylate (para-toluenesulfonate), mesylate (methanesulfonate), napsylate (1-napthalene-2-sulfonate), besylate (benzene sulfonate) and […].
# [7] = in vivo; cited from earlier work
# [8] = test system: rat bladder strip; conditions: WO93/17007; cited from earlier work
# [9] = test system: mammalian lower urinary tract; conditions: in vivo; cited from earlier work
# [10] = Solubility of Rec 15/2739 free base in various vehicles (Table 2); type: physicochemical
# Protocol: Table 2 provides the solubility of the free base forms of the alpha blocker Rec 15/2739 in various vehicles. Solubility of free base is indicated as μg per ml of medium. PBS indicates phosphate buffered saline (20 mM phosphate and 0.9% NaCl).
# [11] = test system: alpha1 adrenergic receptors; conditions: WO93/17007; cited from earlier work
# [12] = test system: guinea pig prostrate, urethra, and vesical triangle; conditions: Honda et al.; cited from earlier work
# [13] = test system: human urethra and vesical triangle; conditions: Honda et al.; cited from earlier work
# [14] = test system: rabbit prostrate, urethra, and vesical triangle; conditions: Honda et al.; cited from earlier work
structure (smiles),measurement,setting,value
COc1cc2nc(N(C)CCCNC(=O)[C@H]3CCCO3)nc(N)c2cc1OC [R enantiomer],potency in antagonizing phenylephrine induced contraction (R vs S enantiomer),[1],equally potent
same,potency in antagonizing phenylephrine induced contraction (R vs S enantiomer),[2],equally potent
"COc1cc2nc(N(C)CCCNC(=O)C3CCCO3)nc(N)c2cc1OC (stereo not drawn) [Alfuzosin, N-3-(4-Amino-6,7dimethoxy-2-quinazolinyl) methylamino!propyl!tetrahydro-2-furancarboxamide]",selectivity for alpha1 subtypes,[3],lacks any relevant selectivity for alpha1 subtypes
same,activity in altering phenylephrine induced contractions,[4],shows activity in altering the phenylephrine induced contractions
same,plasma half life,[5]; S. Lieto di Priolo et al.,4 to 9 h
same,mean oral bioavailability,"[5]; oral, Wilde et al.",64%
"COc1cc2nc(N3CCN(C(=O)C4CCCO4)CC3)nc(N)c2cc1OC (stereo not drawn) [Terazosin, reference compound]",pKa,[6],7.1
"COc1cc2nc(N3CCN(C(=O)c4ccco4)CC3)nc(N)c2cc1OC [Prazosin, reference compound]",most common side effect,[7],hypotension
COc1cc2nc(N(C)CCCNC(=O)[C@@H]3CCCO3)nc(N)c2cc1OC [S enantiomer],potency in antagonizing phenylephrine induced contraction (R vs S enantiomer),[1],equally potent
same,potency in antagonizing phenylephrine induced contraction (R vs S enantiomer),[2],equally potent
"COc1ccccc1N1CCN(CCCNC(=O)c2cccc3c(=O)c(C)c(-c4ccccc4)oc23)CC1 [Rec 15/2739, 8(3-4-(2-methoxyphenyl)-1-piperazinyl!-propylcarbamoyl)-3-methyl-4-oxo-2-phenyl-4H-1-benzopyran]",antagonistic effects against contractions induced by potassium chloride,[8],demonstrate antagonistic effects against contractions of rat bladder strip induced by potassium chloride
same,selectivity for lower urinary tract (urethral contractions vs lowering blood pressure),[9],substantially more active in antagonizing urethral contractions than in lowering blood pressure
same,pKa,[6]; read-out: pKa,7
same,solubility,"[10]; aqueous buffer, PBS pH 5.2",68 µg/mL
same,solubility,"[10]; aqueous buffer, PBS pH 6.7",5.2 µg/mL
same,solubility,[10]; saline,1.5 µg/mL
same,affinity and selectivity for alpha1 adrenergic receptors,[11],has affinity and selectivity for the alpha1 adrenergic receptors
same,toxicity,[7],low toxicity
"CCOc1ccccc1OCCNC(C)Cc1ccc(OC)c(S(N)(=O)=O)c1 (stereo not drawn) [Tamsulosin, 5-2-2-(o-Ethoxyphenoxy)-ethyl!amino!propyl!-2-methoxybenzenesulfonamide]",reduction of contraction,[12],reduces the contraction
same,reduction of contraction,[13],reduces the contraction
same,reduction of contraction,[14],reduces the contraction
